Measurements: patent publication US11572590B2, “Methods for evaluating tumor cell spheroids using 3D microfluidic cell culture device” (Dana-Farber Cancer Institute, Inc., priority 2017, dated 2023)
Where two headings read alike, the source gives them in different places.

What was measured:
Assay in all cases: SelectScreen Kinase Profiling, single point inhibition and IC50 for off-target kinases
Assay type in all cases: biochemical
off-target kinases [1] = target: off-target kinases (Homo sapiens, UniProt P16234, D842V); conditions: PDGFRA D842V, ATP Km app, ZLYTE
off-target kinases [2] = target: T1, off-target kinases (Homo sapiens, UniProt Q16832); conditions: DDR2, LanthaScreen Binding
T1 sequence (Q16832 22-855): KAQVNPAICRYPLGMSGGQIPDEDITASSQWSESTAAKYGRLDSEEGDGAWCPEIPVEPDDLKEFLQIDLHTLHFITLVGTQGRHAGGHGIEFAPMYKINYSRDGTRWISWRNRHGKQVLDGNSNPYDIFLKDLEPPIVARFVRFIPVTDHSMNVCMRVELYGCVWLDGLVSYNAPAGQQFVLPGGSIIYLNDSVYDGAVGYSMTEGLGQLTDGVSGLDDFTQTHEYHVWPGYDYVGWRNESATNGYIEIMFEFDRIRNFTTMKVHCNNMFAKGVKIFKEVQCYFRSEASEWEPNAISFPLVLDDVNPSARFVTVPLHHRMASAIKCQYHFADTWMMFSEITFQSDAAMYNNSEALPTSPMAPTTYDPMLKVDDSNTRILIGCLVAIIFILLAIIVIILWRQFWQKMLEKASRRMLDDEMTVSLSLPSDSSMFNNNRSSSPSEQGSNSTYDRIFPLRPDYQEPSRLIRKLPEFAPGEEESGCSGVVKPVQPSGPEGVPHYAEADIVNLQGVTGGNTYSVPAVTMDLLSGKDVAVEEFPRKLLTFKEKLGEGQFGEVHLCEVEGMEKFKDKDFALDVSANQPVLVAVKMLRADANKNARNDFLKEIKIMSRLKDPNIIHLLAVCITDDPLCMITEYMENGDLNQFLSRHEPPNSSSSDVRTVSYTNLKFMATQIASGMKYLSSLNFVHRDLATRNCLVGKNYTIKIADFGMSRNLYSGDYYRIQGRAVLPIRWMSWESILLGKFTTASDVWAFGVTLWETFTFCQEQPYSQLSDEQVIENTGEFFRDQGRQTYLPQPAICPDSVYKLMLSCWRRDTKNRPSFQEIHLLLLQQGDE

off-target kinases [3] = target: T2, off-target kinases (Homo sapiens, UniProt Q9H093); conditions: NUAK2, LanthaScreen Binding
T2 sequence (Q9H093 1-628): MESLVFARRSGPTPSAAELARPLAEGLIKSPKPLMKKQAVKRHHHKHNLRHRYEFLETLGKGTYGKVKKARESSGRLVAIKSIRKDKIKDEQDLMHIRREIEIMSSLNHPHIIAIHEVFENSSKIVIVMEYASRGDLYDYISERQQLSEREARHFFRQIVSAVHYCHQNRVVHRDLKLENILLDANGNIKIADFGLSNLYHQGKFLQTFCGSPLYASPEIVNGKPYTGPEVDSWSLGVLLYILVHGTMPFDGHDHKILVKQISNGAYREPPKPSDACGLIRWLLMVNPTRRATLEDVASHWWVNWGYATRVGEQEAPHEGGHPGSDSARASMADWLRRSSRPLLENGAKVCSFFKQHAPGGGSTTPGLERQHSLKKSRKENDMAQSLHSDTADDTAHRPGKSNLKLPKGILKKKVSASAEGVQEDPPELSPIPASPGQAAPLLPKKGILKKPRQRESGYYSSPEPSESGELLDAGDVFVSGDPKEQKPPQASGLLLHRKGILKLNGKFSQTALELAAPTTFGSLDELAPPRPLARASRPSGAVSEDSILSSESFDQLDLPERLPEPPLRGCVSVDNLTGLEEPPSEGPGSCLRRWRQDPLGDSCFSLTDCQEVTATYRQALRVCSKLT

off-target kinases [4] = target: off-target kinases (Homo sapiens, UniProt Q9NYA1); conditions: SPHK1, Adapta, ATP Km app
off-target kinases [5] = target: off-target kinases (Homo sapiens, UniProt Q9Y5S2); conditions: CDC42 BPB (MRCKB), ZLYTE, ATP Km app
off-target kinases (Homo sapiens, UniProt Q9Y5S2), sequence (Q9Y5S2 whole entry): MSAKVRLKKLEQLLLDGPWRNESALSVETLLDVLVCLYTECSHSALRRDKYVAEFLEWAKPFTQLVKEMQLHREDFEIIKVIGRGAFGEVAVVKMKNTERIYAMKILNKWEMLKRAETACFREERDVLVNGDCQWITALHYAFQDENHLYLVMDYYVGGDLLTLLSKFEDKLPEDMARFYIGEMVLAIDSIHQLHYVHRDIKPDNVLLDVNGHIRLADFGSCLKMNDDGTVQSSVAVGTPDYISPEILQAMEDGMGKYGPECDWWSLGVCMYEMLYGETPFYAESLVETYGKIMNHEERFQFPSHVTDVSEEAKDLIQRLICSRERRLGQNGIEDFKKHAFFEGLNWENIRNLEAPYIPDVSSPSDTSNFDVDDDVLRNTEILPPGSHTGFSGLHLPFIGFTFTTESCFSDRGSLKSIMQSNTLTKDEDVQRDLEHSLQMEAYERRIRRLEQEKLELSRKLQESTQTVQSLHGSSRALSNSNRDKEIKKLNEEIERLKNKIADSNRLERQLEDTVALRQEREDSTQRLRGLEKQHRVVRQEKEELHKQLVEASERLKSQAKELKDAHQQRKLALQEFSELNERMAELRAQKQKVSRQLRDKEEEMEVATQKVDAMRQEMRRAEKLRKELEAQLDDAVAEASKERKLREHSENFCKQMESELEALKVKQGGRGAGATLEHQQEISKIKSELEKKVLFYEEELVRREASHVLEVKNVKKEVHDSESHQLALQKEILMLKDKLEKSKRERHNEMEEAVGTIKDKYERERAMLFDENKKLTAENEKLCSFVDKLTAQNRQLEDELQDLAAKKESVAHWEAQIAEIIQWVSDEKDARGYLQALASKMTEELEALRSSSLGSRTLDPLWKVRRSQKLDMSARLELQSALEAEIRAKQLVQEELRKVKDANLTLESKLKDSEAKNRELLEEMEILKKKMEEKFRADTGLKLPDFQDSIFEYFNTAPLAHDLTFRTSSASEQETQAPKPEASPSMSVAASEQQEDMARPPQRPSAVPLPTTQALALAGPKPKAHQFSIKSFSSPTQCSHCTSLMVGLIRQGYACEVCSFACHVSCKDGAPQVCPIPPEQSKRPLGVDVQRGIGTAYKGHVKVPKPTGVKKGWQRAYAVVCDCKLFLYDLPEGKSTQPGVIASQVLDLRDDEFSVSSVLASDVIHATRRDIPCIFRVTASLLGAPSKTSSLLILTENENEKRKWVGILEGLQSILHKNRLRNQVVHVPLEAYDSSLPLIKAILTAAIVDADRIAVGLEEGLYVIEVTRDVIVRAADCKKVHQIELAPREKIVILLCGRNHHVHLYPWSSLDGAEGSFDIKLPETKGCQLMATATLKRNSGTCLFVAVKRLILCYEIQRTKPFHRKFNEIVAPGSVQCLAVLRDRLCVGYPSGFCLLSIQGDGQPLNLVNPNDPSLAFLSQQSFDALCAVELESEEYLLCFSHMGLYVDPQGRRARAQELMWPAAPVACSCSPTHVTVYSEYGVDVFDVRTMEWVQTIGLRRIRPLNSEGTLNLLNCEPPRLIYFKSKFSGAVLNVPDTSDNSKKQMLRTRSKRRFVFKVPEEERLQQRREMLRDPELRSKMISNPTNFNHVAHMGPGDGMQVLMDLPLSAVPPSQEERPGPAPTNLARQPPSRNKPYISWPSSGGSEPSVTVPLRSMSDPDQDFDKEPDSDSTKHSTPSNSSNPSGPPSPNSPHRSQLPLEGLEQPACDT

off-target kinases (Homo sapiens, UniProt Q9NYA1), sequence (Q9NYA1 whole entry): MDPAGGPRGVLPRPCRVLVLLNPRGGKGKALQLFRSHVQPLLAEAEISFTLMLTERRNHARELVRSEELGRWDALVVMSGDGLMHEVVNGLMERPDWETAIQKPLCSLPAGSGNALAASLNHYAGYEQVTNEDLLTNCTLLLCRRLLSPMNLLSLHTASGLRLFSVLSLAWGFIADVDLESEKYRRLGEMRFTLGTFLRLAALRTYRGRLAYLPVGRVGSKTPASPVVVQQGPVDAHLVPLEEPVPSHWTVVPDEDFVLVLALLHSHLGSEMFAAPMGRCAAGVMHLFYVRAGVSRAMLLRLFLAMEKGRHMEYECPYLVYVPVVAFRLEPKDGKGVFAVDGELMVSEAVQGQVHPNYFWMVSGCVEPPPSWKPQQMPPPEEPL
off-target kinases (Homo sapiens, UniProt P16234, D842V), sequence (P16234 24-1089 D842V): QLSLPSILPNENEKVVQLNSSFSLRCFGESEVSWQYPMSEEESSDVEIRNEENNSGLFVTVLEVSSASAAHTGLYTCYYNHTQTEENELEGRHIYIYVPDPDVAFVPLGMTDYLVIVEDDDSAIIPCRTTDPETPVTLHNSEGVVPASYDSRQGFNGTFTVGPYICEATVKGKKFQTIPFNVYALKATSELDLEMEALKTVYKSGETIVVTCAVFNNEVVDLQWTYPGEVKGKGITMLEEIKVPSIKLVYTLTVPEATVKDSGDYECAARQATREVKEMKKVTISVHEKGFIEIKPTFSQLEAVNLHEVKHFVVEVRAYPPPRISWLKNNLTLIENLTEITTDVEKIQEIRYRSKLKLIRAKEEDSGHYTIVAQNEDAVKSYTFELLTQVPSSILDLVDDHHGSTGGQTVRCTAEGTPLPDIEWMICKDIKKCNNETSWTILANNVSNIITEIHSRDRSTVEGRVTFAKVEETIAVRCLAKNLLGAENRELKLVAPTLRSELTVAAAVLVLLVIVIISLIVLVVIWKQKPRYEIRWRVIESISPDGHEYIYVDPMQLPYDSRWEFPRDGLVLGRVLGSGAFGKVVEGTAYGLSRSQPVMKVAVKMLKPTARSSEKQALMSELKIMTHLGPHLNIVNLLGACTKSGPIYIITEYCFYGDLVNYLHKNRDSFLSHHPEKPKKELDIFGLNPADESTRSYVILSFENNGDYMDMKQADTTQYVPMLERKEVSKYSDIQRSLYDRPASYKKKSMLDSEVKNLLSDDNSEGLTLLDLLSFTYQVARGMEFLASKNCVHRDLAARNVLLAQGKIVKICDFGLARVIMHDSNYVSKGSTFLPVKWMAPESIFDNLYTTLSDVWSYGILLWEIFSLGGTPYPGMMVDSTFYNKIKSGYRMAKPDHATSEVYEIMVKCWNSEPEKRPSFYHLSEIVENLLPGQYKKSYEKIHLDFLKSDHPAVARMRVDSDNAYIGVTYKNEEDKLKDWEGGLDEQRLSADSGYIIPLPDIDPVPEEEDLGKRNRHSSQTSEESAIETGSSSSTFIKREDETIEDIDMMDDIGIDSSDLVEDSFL

SMILES: N#Cc1cc(-c2ncnc(Nc3ccc(N4CCN(C5COC5)CC4)cc3)n2)ccc1OC1CCOCC1 [Compound 1, 5-(4-((4-(4-(oxetan-3-yl)piperazin-1-yl)phenyl)amino)-1,3,5-triazin-2-yl)-2-((tetrahydro-2H-pyran-4-yl)oxy)benzonitrile]
- inhibition (off-target kinases [1]; read-out: % Inhibition 1): 77%
- inhibition (off-target kinases [1]; read-out: % Inhibition 2): 73%
- inhibition (off-target kinases [1]; read-out: % Inhibition Avg): 75%
- inhibition (off-target kinases [2]; read-out: % Inhibition 1): 0%
- inhibition (off-target kinases [2]; read-out: % Inhibition 2): 1%
- inhibition (off-target kinases [2]; read-out: % Inhibition Avg): 0%
- inhibition (off-target kinases [3]; read-out: % Inhibition 1): 54%
- inhibition (off-target kinases [3]; read-out: % Inhibition 2): 52%
- inhibition (off-target kinases [3]; read-out: % Inhibition Avg): 53%
- inhibition (off-target kinases [4]; read-out: % Inhibition 1): 10%
- inhibition (off-target kinases [4]; read-out: % Inhibition 2): -9%
- inhibition (off-target kinases [4]; read-out: % Inhibition Avg): 0%
- inhibition (off-target kinases [5]; read-out: % Inhibition 1): 6%
- inhibition (off-target kinases [5]; read-out: % Inhibition 2): 13%
- inhibition (off-target kinases [5]; read-out: % Inhibition Avg): 10%
